Two compounds from paper PMC9942192 (ACS Synthetic Biology, 2023) can be followed below.

The experiment has as its target T1, AtSWEET4 (Arabidopsis thaliana, UniProt Q944M5).
T1 sequence (Q944M5 1-251): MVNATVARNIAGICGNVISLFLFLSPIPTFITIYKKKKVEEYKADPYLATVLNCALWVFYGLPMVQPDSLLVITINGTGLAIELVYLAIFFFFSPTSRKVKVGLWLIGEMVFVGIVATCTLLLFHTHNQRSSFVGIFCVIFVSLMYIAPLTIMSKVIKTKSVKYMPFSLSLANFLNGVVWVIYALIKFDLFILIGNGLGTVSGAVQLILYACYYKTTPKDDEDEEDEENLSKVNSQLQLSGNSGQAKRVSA
Briefly: […]-radiolabeled uptake in yeast EBY4000. The format is cell-based. The settings on record: labelled compound; positive control; n = 3.

For `OCC1(O)OC[C@@H](O)[C@@H](O)[C@@H]1O` (stereo partly drawn) [D-fructose], the uptake result was “D-mannose and D-fructose transporter AtSWEET4 serves as a positive control”.

Turning to `OC[C@H]1OC(O)[C@@H](O)[C@@H](O)[C@@H]1O` (stereo partly drawn) [D-mannose], the uptake result was “D-mannose and D-fructose transporter AtSWEET4 serves as a positive control”.
